Where two headings read alike, the source gives them in different places.
Experiments:
[1] = Oxygen release from peroxides in water or nutrient solution and its adjustment; format: physicochemical; conditions: for oxygen level as nutrient strength increases: nutrient solution with or without companion cations, FIGS. 17 and 18; for increase of oxygen liberated per millimole of EDTA: slope of linear fit, FIG. 10
Method: One hundred milligrams of each of the above solid compositions comprising oxidizing agents was put in a 50 ml polypropylene tube, respectively, unless specialized. 50 ml de-ionized water or nutrient solution was put into the tubes. The strength of the nutrient solutions was 25%, 50%, 100%, 200% or 400% of Yan's formula (Yan, F. et al., “Adaptation of active proton pumping and plasmalemma ATPase activity of corn roots to low root medium pH,” Plant Physiology, 117:311-319 (1998)). The oxygen solutions were allowed to equilibrate over night before any measurements were made.
Oxygen contents in the solutions were determined with an oxygen electrode and ASET system (Applicable Electronics, Inc). Calibration was made by nitrogen aerating deionized water and air equilibrated deionized water. The deionized water consists of 0% oxygen level and the air equilibrated deionized water consists of 21% oxygen content. The temperature of the deionized water was measured and recorded for every measurement. The actual oxygen content in the deionized water at a specific temperature was derived from a handbook of chemistry (David R. Lide, Handbook of Chemistry and Physics, 79th Edition, 1998-1999, pp. 8-87). A regressive equation was formed based on data from calibration calculations and the handbook. All of the observed values were changed into oxygen contents in micromoles through the regressive equation.
Different levels of companion cations of peroxides or chelate were added to the sample solutions. For example, EDTA was added to the 50 ml tubes with peroxide solutions. The peroxide solutions were made in both deionized water and nutrient solutions. After equilibrating overnight, the oxygen contents of the adjusted solutions were analyzed.

ADH of corn roots = experiment: ADH activity of roots of flooded corn plants (FIG. 23); format: in vivo; conditions: flooded for 3 days
Bald cypress seedlings = experiment: Flooding and salinity of Bald cypress seedlings; format: in vivo; conditions: 8 ppt salinity
Text: Bald cypress is a plant of great ecological and economic significance in Florida. However, these tough, tolerant, inexpensive and somewhat idiosyncratic trees are at the heart of a fast-disappearing ecosystem. Flooding and salinity caused by hurricanes have accelerated the disappearance of the species. Five basins were set up to mimic flooding basins to study the effects of a solid composition of the invention on alleviating the impact of flooding and salinity on Bald cypress seedlings. These basins were established by using plastic swimming pools with 185×152×23 cm plastic tubs for the combined treatment of flooding and salinity to bald cypress seedlings.
Five levels of salinity were presented: 0, 2, 4, 6 and 8 ppt in sodium chloride. Three flooding levels were presented: 0%, 50% and 100% root submergence. 0% flooding level consisted of 100% of the pots being above the water surface; 50% flooding level consisted of 50% of the height of the pots being submerged; and 100% flooding level consisted of 100% of the height of the pots being submerged.
Two oxygen bioavailable levels were provided for those seedlings that were fully flooded with 8 ppt salinity: (1) with composition comprising oxidizing agent or (2) without composition comprising oxidizing agent in the potted soil. […] Survival rates of the potted seedlings were observed and calculated for each of the treatments.

[2] = Solubility product (Ksp) of the peroxides; format: physicochemical
ADH of corn seedlings [3] = experiment: ADH activity of flooded corn seedlings grown in soil in pots with oxygen fertilizers (FIG. 28); format: in vivo
Method: ADH and NR were extracted in the same extraction buffer including 50 mM Tris-HCl (pH 8.0), 1 mM EDTA, 12 μM mercaptoethanol, and 0.05 mg DTT/ml. Frozen root tissues were ground rapidly in a chilled mortar and pestle with the above chilled extraction buffer. The homogenate was centrifuged at 15 000 g at 4° C. for 15 minutes. One hundred μl of supernatant was added to 800 μl of reaction solution containing 50 mM Tris-HCl buffer at pH 9.0, 1 mM EDTA, and 1 mM NAD. The assay uses 15% (v/v) ethanol as the substrate and measures the production of NADH. Measurement of NADH formation was performed in a spectrophotometer (DU 64, Beckman Instruments, Fullerton, Calif.) for 60 seconds at 340 nm. A unit of ADH is defined as the production of 1 nmol of NADH min^−1 mg^−1 protein.

corn seeds [4] = conditions: for germination rate: FIG. 2
Method: Corn seeds of FR27 x FRM017 (GRADE: 24RD) were provided by Illinois Foundation Seeds Inc. Two sets of seeds were used: one set of seeds consisted of fresh seeds and the other set of seeds consisted of seeds that were […].
H2O2 methods: 30 seeds and 50 ml 0.5 mM Ca (as CaSO4) with 3/5000, 3/4000, 3/3000, 3/2000, 3/1000 or 3/100 H2O2, separately, were placed into 9 cm dishes. The seeds were soaked in these solutions for 24 hours and then put on and covered by wet napkins. The napkins were wetted in the soaking solutions, respectively.

corn seeds [5] = conditions: 3/2000 hydrogen peroxide for one day, embryos or endosperm, FIG. 6
Method: The tested seeds were stabilized as described above. The seed samples were soaked in 0.5 mM CaSO4 solution with or without 3/2000 hydrogen peroxide for one day before any measurements were made. Pt/Ir oxygen electrodes were used. The microelectrodes were calibrated before and after each experiment. Calibrations were performed in deionized water saturated with air (which includes 21% oxygen concentration) and then bubbled with nitrogen gas for at least 30 min (so as to provide 0% oxygen concentration). Ten scans were done on either embryos or endosperms.

[6] = system: Alcohol dehydrogenase (ADH) of corn embryos; conditions: 3/2000 hydrogen peroxide, embryos facing downward, 48 hours after germination at 25° C., FIG. 4
Method: Alcohol dehydrogenase (“ADH”) activities of corn embryos placed in environments with different concentrations of bioavailable oxygen at 48 hours after germination at 25° C. were observed. Before germination, corn seeds were soaked in 0.5 mM CaSO4 solution, in aeroponics, or in 3/2000 H2O2 for 24 hours. All of the embryos were exposed to air except for one sample group treated with water, which was placed into soil.
Following treatment, each corn seed was cut into two halves on the embryo. Four halves of embryos were homogenized in extraction buffer including 50 mM Tris-HCl (pH 8.0), 1 mM EDTA, 0.5 mg/ml DTT, and 12 μM mercaptoethanol. The suspension solution of the enzyme was centrifuged twice at 15000 rpm for 5 min in order to separate oil (on the top) from pellets (at the bottom). The supernatant from the second centrifuge was used to measure ADH activity.
100 μl of the enzyme solution and 900 μl of reaction solution that included 50 mM Tris-HCl (pH 9.0), 1 mM EDTA, and 1 mM NAD were incubated in 1.5 ml Eppendorf tubes in a water bath at 30° C. for 3 min. Then, 100 μl 15% ethanol and the reaction solution were added directly to cuvette. Reaction time was 1 min. in the cuvette at 340 nm. The assay uses ethanol as the substrate and measures the production of NADH. […] The relative ADH activity was calculated based on taking the ADH activity of corn seeds germinated in aeroponics as 100%.

[7] = system: corn seed embryos or endosperms; conditions: 3/2000 hydrogen peroxide for one day, medium 100 μM CaCl2, FIG. 5
Method: 1.5 mm borosilicate glass capillaries (cat no. TW150-4) that were 10 cm in length were pulled into two micropipettes through a Sutter P-97 at 545° C. The freshly pulled micropipettes were silanized at 200° C. with N,N-Dimethyltrimethylslylamine according to Smith's method (Smith, P J S et al., “Self-referencing, non-invasive, ion selective electrode for single cell direction of trans-plasma membrane,” Microscopy Research and Technique, 46:398-417 (1999)).
Micropipettes were backfilled with H^+ probe backfilling solution of 50 mM KCl and 50 mM HK2PO4.
45 g of Sylgard 184 silicone elastomer and 5 g of Sylgard 184 curing agent (Dow Corporation, USA) were poured into the bottom of a 10 cm Pyrex dish in order to provide a medium for stabilizing the tested treated seeds. One seed was appropriately stabilized in the center of the Pyrex dish with 4 to 5 stainless-steel needles.
Microelectrodes were calibrated before and after each experiment. Calibrations were performed at standard pH 6, 7, and 8 solutions (Fisher Scientific) at 25° C. The Nernst Slopes (in mV decade^−1) were equal or close to 59. Following calibration, the microelectrode was positioned on both the embryos and endosperm of the targeted seed. Then, the embryo and endosperm were, respectively, scanned 100 μm by 100 μm. At least 10 scans were done on either embryo or endosperm.

ADH of corn seedlings [8] = conditions: nutrient solution of 2 mM hydrogen peroxide, FIG. 26
Method: The enzyme assay was performed according to the procedures described by Chung and Ferl (“Arabidopsis Alcohol Dehydrogenase Expression in Both Shoots and Roots Is Conditioned by Root Growth Environment,” Plant Physiol, 121:429-436 (1999)) and modified slightly. ADH and NR were extracted in the same extraction buffer including 50 mM Tris-HCl (pH 8.0), 1 mM EDTA, 12 μM mercaptoethanol, and 0.05 mg DTT/ml. Frozen root tissues were ground rapidly in a chilled mortar and pestle with the above chilled extraction buffer. The homogenate was centrifuged at 15 000 g at 4° C. for 15 minutes. One hundred μl of supernatant was added to 800 μl of reaction solution containing 50 mM Tris-HCl buffer at pH 9.0, 1 mM EDTA, and 1 mM NAD. The assay uses 15% (v/v) ethanol as the substrate and measures the production of NADH. Measurement of NADH formation was performed in a spectrophotometer (DU 64, Beckman Instruments, Fullerton, Calif.) for 60 seconds at 340 nm. A unit of ADH is defined as the production of 1 nmol of NADH min^−1 mg^−1 protein.

[9] = system: nitrate reductase (NR) of corn seedlings; conditions: nutrient solution of 2 mM hydrogen peroxide, FIG. 27
Method: NR assays were performed essentially as described by the protocol of Datta and Sharma (Rupali Datta and Rameshwar Sharma, “Temporal and spatial regulation of nitrate reductase and nitrite reductase in green maize leaves,” Plant Science, 144:77-83 (1999)). NR activity was measured immediately. 200 μl of supernatant was added to 800 μl of reaction solution consisting of 50 mM Tris-HCl buffer (pH 8.0), 1 mM EDTA, 100 μM NADH, 10 mM KNO3 and 1 μM Na2MoO4 in a 2 ml eppendorf tube. The reaction was performed in a water bath of 30° C. and terminated after 60 min by adding 500 μl of an equal volume of sulfanilamide (1% [w/v] in 3 n HCl) and naphthylethylene-diamine dihydrochloride (0.05% [w/v]) to the reaction mixture. The samples were colorimetrically measured at 540 nm. One unit of NR activity was defined as the amount required to produce 1 nmol of nitrite min^−1 mg^−1 protein.

corn root = conditions: nutrient solution with 1 mM H2O2 for two days, air bubbling (normoxia), FIG. 31
Method: Each of the untreated 1.5 mm borosilicate glass capillaries (cat no. TW150-4) of 10 cm length was pulled into two micropipettes through a Sutter P-97 at 545° C. The freshly pulled micropipettes were silanized at 200° C. with N,N-Dimethyltrimethylslylamine according to Smith's method (Smith, P J S et al., “Self-referencing, non-invasive, ion selective electrode for single cell direction of trans-plasma membrane,” Microscopy Research and Technique, 46:398-417 (1999)).
The micropipettes were backfilled with a H^+ probe backfilling solution of 50 mM KCl and 50 mM HK2PO4.
A rubber groove of 20 cm in length, 5 cm in width, and 1 cm in height was connected to the pot with 1800 ml nutrient solution via a peristaltic pump (Model: 77120-62, 12 VDC 1 AMP, Mfg by Barnant Company) and non-permeable oxygen tubing. One radicle root was appropriately stabilized in the groove with 4 to 5 Minucie stainless-steel needles. Microelectrodes were calibrated before and after each experiment. Calibrations were done in standard pH 6, 7, and 8 solutions (Fisher Scientific) at 25° C. […] Following calibration, the microelectrode was positioned on the targeted radicle root. The scanning started from the root tip and the root was scanned 100 μm by 100 μm near the root tip. Then the scanning intervals were adjusted gradually from 200 μm to 1000 μm or even longer. About 20000 μm along the root was scanned. […]

[10] = cited from earlier work

Compound: [Ca+2].[O-][O-] [calcium peroxide]
- oxygen released into water ([1]; 500 mg solid composition in 50 ml deionized water, FIG. 9): released more oxygen than magnesium peroxide
- oxygen level as nutrient strength increases [1]: increases when the nutrient strength increases
- increase of oxygen liberated per millimole of EDTA [1]: about 19 micromoles
- ADH level compared with control (ADH of corn roots; 18 g per pot): almost as good as the control
- ADH activity in roots as more solid composition was used (ADH of corn roots): the less ADH activity observed in the tested roots
- death of seedlings (Bald cypress seedlings; 100% flooding): No seedlings died
- growth of seedlings (Bald cypress seedlings; 100% roots submerged for four days, 20 g per pot, FIG. 32): could grow
- Ksp relative to magnesium peroxide [2]: about 3000 times
- effect on ADH of seedlings suffering from flooding (ADH of corn seedlings [3]): greatly lowered the ADH of the seedlings suffering from flooding

Compound: OO [hydrogen peroxide]
- root lengths (corn seeds [4]; 3/100 H2O2, third day after germination): 6.8±1.7 mm
- germination rates among varying concentrations of H2O2 (corn seeds [4]; 3/2000 H2O2, FIG. 1): the best germination rates
- germination at 24 hours (corn seeds [4]; 3/2000 H2O2, FIG. 3): all of the seeds were able to germinate at 24 hours
- germination rate (corn seeds [4]; 3/2000 H2O2, new seeds): 95.6%
- germination rate (corn seeds [4]; 3/2000 H2O2, old seeds): 94.4%
- root lengths (corn seeds [4]; 3/2000 H2O2, third day after germination): 34.8±1.7 mm
- germination rates of corn seeds compared with non-hydrogen peroxide exposure (corn seeds [4]; H2O2 3/5000 to 3/100, 48 hours after germination, FIG. 1): significantly better germination rates than non-hydrogen peroxide exposure
- oxygen consumption rate relative to without hydrogen peroxide (corn seeds [5]): about two
- diminished ADH activity [6]: about 40%
- proton flux direction [7]: proton efflux occurs heavily
- ADH level compared with control (ADH of corn seedlings [8]): slightly higher that that of the control
- ADH level compared with hypoxic seedlings (ADH of corn seedlings [8]): greatly lower than those of hypoxic seedlings
- NR level compared with hypoxic seedlings [9]: greatly lower than those of hypoxic seedlings
- protons excreted by roots relative to hypoxia or anoxia (corn root): seven to ten

Compound: [Mg+2].[O-][O-] [magnesium peroxide]
- oxygen level as nutrient strength increases [1]: very smooth when the nutrient strength increases
- increase of oxygen liberated per millimole of EDTA [1]: about 14 micromoles
- ADH activity in roots as more solid composition was used (ADH of corn roots): the less ADH activity observed in the tested roots
- effect on ADH of seedlings suffering from flooding (ADH of corn seedlings [3]): greatly lowered the ADH of the seedlings suffering from flooding
- oxygen released by zero order constant release ([10]; after the first six days): 90%
- oxygen released by first order release ([10]; first six days): 10%

Compound: O=C([O-])[O-].O=C([O-])[O-].OO.OO.OO.[Na+].[Na+].[Na+].[Na+] [sodium percarbonate]
- ADH level compared with flooded treatment (ADH of corn roots; 5 g): almost as bad as the flooded treatment without the supply of solid compositions
- ADH activity in roots as more solid composition was used (ADH of corn roots): the less ADH activity observed in the tested roots

Source: US20090305888A1, “Materials and Methods for Providing Oxygen to Improve Seed Germination and Plant Growth” (priority 2006, published 2009)
